Assay results: ChEMBL document CHEMBL1128494, “Synthesis and sigma binding properties of 1'- and 3'-halo- and 1',3'-dihalo-N-normetazocine analogues” (J Med Chem, 1995)

target: Sigma non-opioid intracellular receptor 1 (Rattus norvegicus) (UniProt Q9R0C9); test: Ratio of the binding affinity against Sigma receptor type 2 to that of Sigma receptor type 1
Sequence (Q9R0C9 whole entry): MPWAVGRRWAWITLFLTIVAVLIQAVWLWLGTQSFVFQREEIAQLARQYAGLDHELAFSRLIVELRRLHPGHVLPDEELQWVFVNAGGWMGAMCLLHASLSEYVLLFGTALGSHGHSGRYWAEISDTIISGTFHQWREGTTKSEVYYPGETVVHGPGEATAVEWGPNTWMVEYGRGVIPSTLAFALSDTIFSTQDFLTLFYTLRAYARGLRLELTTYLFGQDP

Which Ratio does the source give for CC1C2Cc3cc(Br)c(O)cc3C1(C)CCN2Cc1ccccc1 (stereo unspecified) here?
Its Ratio is 18.

With CC1C2Cc3cc(Cl)c(O)c(Cl)c3C1(C)CCN2Cc1ccccc1 (stereo unspecified) as the compound, how does the Ratio read?
The Ratio was 30.

With CC1C2Cc3ccc(O)cc3C1(C)CCN2Cc1ccccc1 (stereo unspecified) as the compound, how does the Ratio read?
The Ratio was 2600.

With CC(C)=CCN1CCC2(C)c3c(cc(Br)c(O)c3Br)CC1C2C (single isomer, unassigned; (+)) as the compound, how does the Ratio read?
The Ratio was 1.8.

How did the Ratio turn out when CC(C)=CCN1CCC2(C)c3cc(O)c(Br)cc3CC1C2C (single isomer, unassigned; (+)) was run?
The Ratio was 3.2.

With CC1C2Cc3cc(Br)c(O)c(Br)c3C1(C)CCN2Cc1ccccc1 (single isomer, unassigned; (+)) as the compound, how does the Ratio read?
Its Ratio is 28.

With CC1C2Cc3ccc(O)c(Br)c3C1(C)CCN2Cc1ccccc1 (single isomer, unassigned; (+)) as the compound, how does the Ratio read?
Its Ratio is 200.

With CC1C2Cc3ccc(O)c(Cl)c3C1(C)CCN2Cc1ccccc1 (single isomer, unassigned; (+)) as the compound, how does the Ratio read?
The Ratio was 440.

CC(C)=CCN1CCC2(C)c3cc(O)c(Br)cc3CC1C2C (single isomer, unassigned; (-)) was tested. Which Ratio did it give?
The Ratio was 1.9.

With CC(C)=CCN1CCC2(C)c3cc(O)c(I)cc3CC1C2C (stereo in doubt; (+)-5b) as the compound, how does the Ratio read?
Its Ratio is 0.24.

For CC(C)=CCN1CCC2(C)c3cc(O)c(I)cc3CC1C2C (stereo in doubt; (-)-5b), which Ratio is on record?
Its Ratio is 2.7.
